The text below walks through data of article PMC5702903 (CPT: Pharmacometrics & Systems Pharmacology, 2017).

The conditions of data set [1]: ref fu,p references of Table SI; cited from earlier work.
Data set [2] is described as follows: Empirical plasma PK model. The data set is classed as in vivo, rat. The following applies: for clearance: rat, plasma, iv.
The conditions of data set [3]: source not given; cited from earlier work.
A short description of data set [4]: Drug transport clearance at the brain cell membrane in the PBPK model. To be noted: comparison of QBCM_in/QBCM_out with QBBB_in/QBBB_out. Further details: species or system rat.
The conditions of data set [5]: rat; cited from earlier work.
The next data set can be described thus: Asymmetry factors. Further details: species or system rat. To be noted: for AFin2, asymmetry factor: into CSFLV at BCSFB1; for AFin2, asymmetry factor / AFout2, asymmetry factor: calculated from Kp,uu,CSFLV; for AFin3, asymmetry factor: into CSFTFV at BCSFB2; for AFin3, asymmetry factor / AFout3, asymmetry factor: calculated from Kp,uu,CSFCM; for AFin1, asymmetry factor: into brainECF at BBB; for AFin1, asymmetry factor / AFout1, asymmetry factor: calculated from Kp,uu,brainECF; for AFout2, asymmetry factor: out from CSFLV at BCSFB1; for AFout3, asymmetry factor: out from CSFTFV at BCSFB2; for AFout1, asymmetry factor: out from brainECF at BBB.

Another data set in a line: Free fraction in brain. The data set is classed as in vitro ADME. To be noted: rat.
The conditions of data set [6]: source not given; cited from earlier work. This is another data set of the same source.
[7] abbreviates: rat plasma PK model, estimate (RSE, %).
The mark [8] stands for this setting: rat plasma PK model, parameter estimate (RSE, %).

In the case of `CC(=O)Nc1ccc(O)cc1` [Acetaminophen], the “fu,p, free fraction in plasma” value in data set [1] is listed as 0.81. The “ɷ_VPER1, interindividual variability” value in data set [2] (setting [7]) is recorded as 51.8 (86.0) %. Moreover, in data set [2] (setting [8]), the “Fraction, percentage of the drug which is reabsorbed by enterohepatic circulation” value was 0.693 (19.6); the “VPER1, distribution volume of the peripheral compartment 1” value (shortened to “VPER1, distribution volume”) was 363 (33.1) mL; the “VPL, distribution volume of the central compartment” value (“VPL, distribution volume” for short) is 49.5 (59.0) mL. Further, the Charge class entry in data set [3] is recorded as “Neutral”.
Regarding `CC(C)NCC(O)COc1ccc(CC(N)=O)cc1` (stereo not drawn) [Atenolol], in data set [3], the Charge class result is reported as “Base”.
For `CN(Cc1cnc2nc(N)nc(N)c2n1)c1ccc(C(=O)N[C@@H](CCC(=O)O)C(=O)O)cc1` [Methotrexate], in data set [4], the “what limits the transport clearance from brainMV, via brainECF, to brainICF” value (shortened to “what limits the transport clearance”) was “limited by QBCM_in and QBCM_out”. Further, in data set [2] (setting [7]), the “ɷ_CLPL, interindividual variability” value is 37.4 (46.8) %; the “ɷ_QPL_PER2, interindividual variability” value was 42.5 (42.0) %; the “ɷ_VPL, interindividual variability” value is listed as 40.4 (75.5) %. For the same molecule, in data set [2] (setting [8]), the “VPER1, distribution volume” value is listed as 111 (14.6) mL; the “VPER2, distribution volume of the peripheral compartment 2” value (shortened to “VPER2, distribution volume”) was 83.5 (34.9) mL; the “VPL, distribution volume” value is given as 28.0 (55.0) mL. This molecule showed a clearance in data set [2] of 8.04 mL/min. Further, in data set [3], the Charge class result is “Acid”.
On to `CN1CC[C@]23c4c5ccc(O)c4O[C@H]2[C@@H](O)C=C[C@H]3[C@H]1C5` [Morphine], for which, in data set [2] (setting [7]), the “ɷ_CLPL, interindividual variability” value is reported as 17.8 (39.5) %; the “ɷ_QPL_PER1, interindividual variability” value is reported as 28.8 (29.4) %; the “ɷ_QPL_PER2, interindividual variability” value is recorded as 86.7 (19.3) %; the “ɷ_VPER1, interindividual variability” value is 46.0 (15.3) %. In addition, in data set [2] (setting [7]), the “ɷ_VPL, interindividual variability” value is 80.6 (17.2) %; the “ɷ_study1, interoccasional variability” value is 42.7 (16.2) %; the “ɷ_study2, interoccasional variability” value was 29.7 (30.5) %. Moreover, the Charge class entry in data set [3] was “Base”.
As for `Cc1nc2n(c(=O)c1CCN1CCC(c3noc4cc(F)ccc34)CC1)CCCC2O` (stereo not drawn) [Paliperidone], in data set [5], the “Kp,uu,CSFCM, unbound CSFCM-to-plasma concentration ratio” value is on record as 0.50; the “Kp,uu,CSFLV, unbound CSFLV-to-plasma concentration ratio” value is 0.50; the “Kp,uu,brainECF, unbound brain extracellular fluid-to-plasma concentration ratio” value was 0.50. In the data set “Asymmetry factors”, the “AFin2, asymmetry factor” value is listed as 1.0; the “AFin3, asymmetry factor” value is 1.0; the “AFin1, asymmetry factor” value is recorded as 1.0; the “AFout2, asymmetry factor” value is 3.7. In “Asymmetry factors”, the “AFout3, asymmetry factor” value is given as 4.7 and the “AFout1, asymmetry factor” value is on record as 3.0. Also, in data set [4], the “what limits the transport clearance” value was “limited by QBBB_in and QBBB_out”. In “Free fraction in brain”, the fraction unbound was found to be 0.065. Besides, in data set [2] (setting [7]), the “ɷ_CLPL, interindividual variability” value was 42.0 (62.5) % and the “ɷ_VPL, interindividual variability” value is on record as 47.5 (81.4) %. In data set [2] (setting [8]), the “VPER1, distribution volume” value is 3,580 (35.8) mL and the “VPL, distribution volume” value was 26,400 (12.6) mL. In data set [2], this molecule displayed a clearance of 196 mL/min. In data set [3], the Charge class result was “Base” and the “pKa (acid)” value is listed as 13.7.
Take `O=C1NC(=O)C(c2ccccc2)(c2ccccc2)N1` [Phenytoin]: in data set [6], the “fu,b, free fraction in brain” value is recorded as 0.080. In data set [5], the “Kp,uu,CSFCM, unbound CSFCM-to-plasma concentration ratio” value is 0.26; the “Kp,uu,CSFLV, unbound CSFLV-to-plasma concentration ratio” value is 0.26; the “Kp,uu,brainECF, unbound brain extracellular fluid-to-plasma concentration ratio” value was 0.26. In “Asymmetry factors”, the “AFin2, asymmetry factor” value is listed as 1.0; the “AFin3, asymmetry factor” value is listed as 1.0; the “AFin1, asymmetry factor” value is 1.0; the “AFout2, asymmetry factor” value is 7.6. In “Asymmetry factors”, the “AFout3, asymmetry factor” value is on record as 7.7 and the “AFout1, asymmetry factor” value was 4.2. Moreover, the “what limits the transport clearance” value in data set [4] is “limited by QBBB_in and QBBB_out”. For the same molecule, in data set [2] (setting [7]), the “ɷ_CLPL, interindividual variability” value is listed as 73.8 (12.5) % and the “ɷ_VPL, interindividual variability” value is 75.0 (27.2) %. Besides, in data set [2] (setting [8]), the “VPER1, distribution volume” value was 2,050 (7.50) mL and the “VPL, distribution volume” value was 943 (21.5) mL. In data set [2], this molecule displayed a clearance of 36 mL/min. Further, the Charge class result in data set [3] was “Neutral”.
On to `C=C[C@H]1C[N@@]2CC[C@H]1C[C@@H]2[C@@H](O)c1ccnc2ccc(OC)cc12` [Quinidine], for which, in data set [2] (setting [7]), the “ɷ_CLPL, interindividual variability” value is on record as 23.9 (15.3) %; the “ɷ_QPL_PER1, interindividual variability” value is 24.3 (28.2) %; the “ɷ_VPER1, interindividual variability” value is 12.8 (26.6) %.
As for `CCN1CCC[C@H]1CNC(=O)c1c(O)c(Cl)cc(Cl)c1OC` [Raclopride], in “Asymmetry factors”, the “AFin2, asymmetry factor” value is given as 1.0; the “AFin3, asymmetry factor” value was 1.0; the “AFin1, asymmetry factor” value is recorded as 1.0; the “AFout2, asymmetry factor” value is listed as 1.1. Moreover, in “Asymmetry factors”, the “AFout3, asymmetry factor” value was 1.9 and the “AFout1, asymmetry factor” value is 1.4. In addition, in data set [4], the “what limits the transport clearance” value was “limited by QBBB_in and QBBB_out”. The “ɷ_CLPL, interindividual variability” value in data set [2] (setting [7]) is given as 14.4 (29.8) %. Moreover, in data set [2] (setting [8]), the “VPER1, distribution volume” value is given as 684 (19.2) mL; the “VPER2, distribution volume” value is given as 493 (18.3) mL; the “VPL, distribution volume” value was 48.9 (16.3) mL. Also, the clearance in data set [2] stood at 46.4 mL/min. In data set [3], the Charge class entry was “Zwitterion”, the “pKa (acid)” value is listed as 5.9 and the “pKa (base)” value is 9.0.
On to `CCN1CCC[C@H]1CNC(=O)c1c(OC)ccc(Br)c1OC` [Remoxipride], for which, in data set [2] (setting [7]), the “ɷ_CLPL, interindividual variability” value was 31.0 (12.0) %; the “ɷ_QPL_PER1, interindividual variability” value was 25.1 (12.1) %; the “ɷ_QPL_PER2, interindividual variability” value was 76.7 (13.5) %; the “ɷ_VPL, interindividual variability” value is reported as 64.1 (32.9) %. Besides, in data set [2] (setting [8]), the “VPER1, distribution volume” value was 253 (10.9) mL; the “VPER2, distribution volume” value is on record as 757 (4.00) mL; the “VPL, distribution volume” value was 83.7 (18.3) mL. For the same molecule, the clearance in data set [2] came to 42.2 mL/min. In data set [3], the Charge class result was “Base”.
As to `Cc1nc2n(c(=O)c1CCN1CCC(c3noc4cc(F)ccc34)CC1)CCCC2` [Risperidone], the “fu,b, free fraction in brain” value in data set [6] is reported as 0.065. In the data set “Asymmetry factors”, the “AFin2, asymmetry factor” value is 1.0; the “AFin3, asymmetry factor” value is recorded as 1.0; the “AFin1, asymmetry factor” value is 1.0; the “AFout2, asymmetry factor” value is 1.3. In the data set “Asymmetry factors”, the “AFout3, asymmetry factor” value is reported as 1.5 and the “AFout1, asymmetry factor” value is 1.3. Further, in data set [4], the “what limits the transport clearance” value is “limited by QBBB_in and QBBB_out”. Moreover, in data set [2] (setting [7]), the “ɷ_CLPL, interindividual variability” value is given as 72.5 (38.7) % and the “ɷ_VPL, interindividual variability” value is 53.7 (78.8) %. The “VPL, distribution volume” value in data set [2] (setting [8]) is given as 43,100 (28.1) mL. Also, in data set [2], the clearance stood at 886 mL/min. In data set [3], the Charge class entry was “Base”.

What is called clearance is the volume of plasma or blood freed of the substance per unit of time. The low end stands for a low capacity for elimination, the high end for a high capacity for elimination. For orientation: fraction unbound means the share of the substance not bound to proteins or other matrix.
